Among the data in DBAASP are MIC values, retold here.

Assay in all cases: ≥ marks a high value that may be exact or a test limit, other limits are often not marked, values filed in µg/mL are converted to µM
Experiment [1] relates to Streptococcus mutans.
Experiment [2] concerns Staphylococcus aureus ATCC 6538P.
Experiment [3] deals with Staphylococcus aureus.
Experiment [4] has as its system Staphylococcus aureus ATCC 6538.
Experiment [5] concerns Staphylococcus aureus ATCC 43300.
Experiment [6] has as its system Candida albicans ATCC 90028.
Experiment [7] has as its system Escherichia coli ATCC 8739.
Experiment [8] deals with Salmonella enterica subsp. enterica serovar Typhimurium C77-31.
In experiment [9] the test system is Staphylococcus epidermidis ATCC 12228.
Experiment [10] relates to Salmonella enterica subsp. enterica serovar Pullorum C79-13.
Experiment [11] relates to Staphylococcus aureus ATCC 29213.
Experiment [12] relates to Escherichia coli ATCC 25922.
In experiment [13] the test system is Bacillus subtilis CMCC 63501.
In experiment [14] the test system is Pseudomonas aeruginosa ATCC 27853.
The test system of experiment [15] is Enterococcus faecalis ATCC 29212.
Experiment [16] deals with Escherichia coli K-12.
Experiment [17] deals with Staphylococcus aureus USA 300.

Converted amounts (≈) assume the structure as drawn.

One may read the MIC as the least concentration at which growth counts as inhibited. The compound `CC(C)C[C@H](NC(=O)[C@H](C)NC(=O)[C@H](CCC(=O)O)NC(=O)[C@H](CCCCN)NC(=O)[C@H](C)NC(=O)[C@H](CCC(=O)O)NC(=O)[C@H](Cc1cnc[nH]1)NC(=O)[C@H](CC(C)C)NC(=O)[C@H](C)NC(=O)[C@@H](N)CCCN=C(N)N)C(=O)N[C@@H](CCCCN)C(=O)O` [RALHEAKEALK] had an MIC in [1] not below 198 µM.
As to `CC[C@H](C)[C@@H]1NC(=O)[C@H](C)NC(=O)[C@H](CC(C)C)NC(=O)[C@@H]2CSSC[C@@H](C(=O)N[C@@H](CCCN=C(N)N)C(=O)N[C@@H](CCCN=C(N)N)C(=O)O)NC(=O)[C@H]([C@@H](C)CC)NC(=O)[C@@H]3CSSC[C@H](NC(=O)[C@H](CC(C)C)NC(=O)[C@H](CO)NC(=O)[C@H](Cc4cnc[nH]4)NC(=O)[C@H](CC(N)=O)NC(=O)[C@H](C)NC(=O)[C@H](C)NC(=O)[C@H](Cc4ccccc4)NC(=O)CNC(=O)[C@H](CCCCN)NC(=O)[C@H](C)NC(=O)[C@H](CCC(=O)O)NC(=O)[C@H](Cc4ccccc4)NC(=O)[C@H](CO)NC(=O)[C@H](CC(C)C)NC(=O)[C@H](CC(C)C)NC(=O)[C@H](CC(=O)O)NC(=O)[C@@H](NC(=O)[C@@H](NC(=O)[C@@H](N)C(C)C)[C@@H](C)O)CSSC[C@H](NC(=O)[C@H](CO)NC(=O)CNC(=O)CNC(=O)[C@H](CCCN=C(N)N)NC(=O)[C@H](CCCN=C(N)N)NC(=O)CNC1=O)C(=O)N[C@@H](CCC(=O)O)C(=O)N[C@@H](CCCN=C(N)N)C(=O)NCC(=O)N[C@@H](C(C)C)C(=O)N3)C(=O)N[C@@H](C)C(=O)N[C@@H](C)C(=O)N[C@@H](Cc1cnc[nH]1)C(=O)N2` [VTCDLLSFEAKGFAANHSLCAAHCLAIGRRGGSCERGVCICRR], the values for the MIC in experiment [2] and in [3] were 0.878 µM and 4.39 µM, respectively.
Consider `CC(C)C[C@H](NC(=O)[C@H](CC(C)C)NC(=O)[C@H](Cc1cnc[nH]1)NC(=O)[C@H](Cc1cnc[nH]1)NC(=O)[C@H](CC(C)C)NC(=O)[C@H](CCCCN)NC(=O)[C@H](CCCCN)NC(=O)[C@H](CC(C)C)NC(=O)[C@H](CC(C)C)NC(=O)[C@H](CCCN=C(N)N)NC(=O)[C@H](CCCN=C(N)N)NC(=O)[C@H](Cc1c[nH]c2ccccc12)NC(=O)[C@H](CCCN=C(N)N)NC(=O)CNC(=O)CNC(=O)CNC(=O)[C@H](Cc1ccccc1)NC(=O)[C@H](CCCN=C(N)N)NC(=O)[C@H](CCCN=C(N)N)NC(=O)[C@H](Cc1ccccc1)NC(=O)[C@H](Cc1c[nH]c2ccccc12)NC(=O)[C@H](CCCCN)NC(=O)[C@H](Cc1c[nH]c2ccccc12)NC(=O)[C@H](Cc1ccccc1)NC(=O)[C@H](CCCCN)NC(=O)[C@H](CCCCN)NC(=O)[C@@H](N)Cc1ccccc1)C(=O)N[C@@H](Cc1cnc[nH]1)C(N)=O` [FKKFWKWFRRFGGGRWRRLLKKLHHLLH], for which the MIC in experiment [1] was determined as 4.28 µM (≈ 16 µg/mL).
Same read-out and setting: the value for `NC(=O)[C@H](Cc1ccccc1)NC(=O)[C@H](CCCN=C(N)N)NC(=O)[C@H](Cc1cnc[nH]1)NC(=O)[C@H](Cc1ccccc1)NC(=O)[C@H](Cc1c[nH]c2ccccc12)NC(=O)[C@H](Cc1cnc[nH]1)NC(=O)[C@H](Cc1c[nH]c2ccccc12)NC(=O)[C@H](Cc1ccccc1)NC(=O)[C@H](Cc1ccc(O)cc1)NC(=O)[C@H](Cc1cnc[nH]1)NC(=O)[C@@H](N)Cc1ccccc1` [FHYFWHWFHRF] was not below 73.1 µM.
For the compound `CC[C@H](C)[C@H](NC(=O)[C@H](CCCCN)NC(=O)[C@@H](NC(=O)[C@H](CO)NC(=O)[C@H](CC(N)=O)NC(=O)[C@H](Cc1c[nH]c2ccccc12)NC(=O)[C@H](CC(C)C)NC(=O)CN)[C@@H](C)CC)C(=O)N[C@@H](C)C(=O)NCC(=O)N[C@@H](CCCCN)C(=O)N[C@@H](CC(N)=O)C(=O)N[C@@H](CC(C)C)C(=O)N[C@@H](Cc1ccccc1)C(=O)N[C@H](C(=O)N[C@@H](CC(N)=O)C(=O)N[C@H](C(=O)N[C@@H](CC(C)C)C(=O)N[C@@H](CC(=O)O)C(=O)N[C@@H](CCCCN)C(=O)N[C@H](C(=O)N[C@@H](CCCN=C(N)N)C(=O)N[C@H]1CSSC[C@@H](C(=O)O)NC(=O)CNC(=O)CNC(=O)[C@H](C)NC(=O)[C@H](C(C)C)NC(=O)[C@H](CCCCN)NC1=O)[C@@H](C)CC)C(C)C)C(C)C` [GLWNSIKIAGKNLFVNVLDKIRCKVAGGC], the MIC in [4] is 3.1 µM (≈ 9.66 µg/mL); in experiment [5], 12.5 µM (≈ 38.9 µg/mL); in experiment [6] it was not below 100 µM; in experiment [7], 12.5 µM (≈ 38.9 µg/mL).
Turning to `NC(=O)[C@H](Cc1c[nH]c2ccccc12)NC(=O)[C@H](CCCN=C(N)N)NC(=O)[C@H](CS)NC(=O)[C@H](Cc1ccccc1)NC(=O)[C@H](CCCN=C(N)N)NC(=O)[C@H](CCCN=C(N)N)NC(=O)[C@H](CCCN=C(N)N)NC(=O)[C@H](CS)NC(=O)[C@H](CCCN=C(N)N)NC(=O)[C@@H](N)Cc1c[nH]c2ccccc12` [WRCRRRFCRW], the MIC in experiment [8] stood at 16 µM (≈ 24.4 µg/mL); in [9] it was 8 µM (≈ 12.2 µg/mL); in experiment [10], 4 µM (≈ 6.1 µg/mL); in experiment [11], 8 µM (≈ 12.2 µg/mL); in experiment [12] it was 2 µM (≈ 3.05 µg/mL); in experiment [13], 2 µM (≈ 3.05 µg/mL). Besides, the MIC was more than 128 µM in experiment [14] and 8 µM (≈ 12.2 µg/mL) in experiment [15].
Turning to `CC[C@H](C)[C@H](NC(=O)[C@H](CCCCN)NC(=O)[C@H](CCC(N)=O)NC(=O)[C@@H](NC(=O)[C@@H](NC(=O)[C@H](CCCCN)NC(=O)[C@H](CCCCN)NC(=O)[C@H](Cc1ccccc1)NC(=O)[C@H](CCC(=O)O)NC(=O)CN)[C@@H](C)CC)C(C)C)C(=O)N[C@@H](CCCCN)C(=O)N[C@@H](CC(=O)O)C(=O)N[C@@H](Cc1ccccc1)C(=O)N[C@@H](CC(C)C)C(=O)N[C@@H](CCCCN)C(=O)N[C@@H](CC(N)=O)C(=O)N[C@@H](CC(C)C)C(=O)N[C@H](C(N)=O)C(C)C` [GEFKKIVQKIKDFLKNLV], the MIC is not below 60 µM in experiment [16] and not below 120 µM in [17].
`CC(C)C[C@H](NC(=O)[C@H](CCCCN)NC(=O)[C@H](CCCCN)NC(=O)[C@@H](N)C(C)C)C(=O)N[C@@H](C)C(=O)N[C@@H](CCCCN)C(=O)N[C@@H](CC(C)C)C(=O)N[C@H](C(=O)N[C@@H](CCCN=C(N)N)C(=O)N[C@@H](CCCN=C(N)N)C(=O)N[C@@H](Cc1ccccc1)C(N)=O)C(C)C` [VKKLAKLVRRF] yielded an MIC in experiment [1] of 16.7 µM (≈ 22.6 µg/mL).
With `CC[C@H](C)[C@H](NC(=O)[C@H](CC(C)C)NC(=O)[C@@H]1CCCN1C(=O)[C@H](Cc1ccccc1)NC(=O)[C@H](CC(C)C)NC(=O)[C@@H](N)Cc1ccccc1)C(=O)N[C@H](C(=O)N[C@@H](CO)C(=O)N[C@@H](Cc1ccccc1)C(=O)N[C@@H](CC(C)C)C(=O)N[C@@H](CO)C(=O)N[C@@H](CCCCN)C(=O)N[C@H](C(=O)N[C@@H](CC(C)C)C(=O)O)C(C)C)[C@@H](C)O` [FLFPLITSFLSKVL], the MIC in experiment [16] is not below 100 µM; in experiment [3] it was 130 µM (≈ 211 µg/mL); in experiment [17], not below 50 µM.
Take `CC(C)C[C@H](NC(=O)CN)C(=O)N[C@@H](CCCCN)C(=O)N[C@@H](CCCCN)C(=O)N[C@@H](CC(C)C)C(=O)N[C@@H](CC(C)C)C(=O)NCC(=O)N[C@@H](CCCCN)C(=O)N[C@@H](CC(C)C)C(=O)N[C@@H](CC(C)C)C(=O)N[C@@H](CCCCN)C(=O)N[C@@H](CCCCN)C(=O)N[C@@H](CC(C)C)C(=O)NCC(=O)N[C@@H](CCCCN)C(=O)N[C@@H](CC(C)C)C(=O)N[C@@H](CC(C)C)C(=O)N[C@@H](CC(C)C)C(=O)N[C@@H](CCCCN)C(=O)O` [GLKKLLGKLLKKLGKLLLK]: the MIC in experiment [16] was 10 µM (≈ 21 µg/mL); in experiment [17] it was not below 160 µM.
Turning to `CC[C@H](C)[C@H](NC(=O)[C@H](CCCCN)NC(=O)[C@H](CC(N)=O)NC(=O)[C@H](CCCN=C(N)N)NC(=O)[C@@H](NC(=O)[C@H](CC(N)=O)NC(=O)[C@H](CCCN=C(N)N)NC(=O)[C@@H](NC(=O)[C@H](CCSC)NC(=O)[C@H](CCCCN)NC(=O)[C@H](CCC(=O)O)NC(=O)[C@@H](NC(=O)[C@H](CCCCN)NC(=O)[C@H](CCCCN)NC(=O)[C@H](Cc1ccccc1)NC(=O)[C@@H](NC(=O)[C@H](CCCCN)NC(=O)[C@H](Cc1c[nH]c2ccccc12)NC(=O)[C@@H](N)CCCCN)C(C)C)[C@@H](C)CC)[C@@H](C)CC)[C@@H](C)CC)C(=O)N[C@@H](C)C(=O)N[C@@H](CCCCN)C(N)=O` [KWKVFKKIEKMIRNIRNKIAK], the minimum inhibitory concentration (MIC) was 3 µM (≈ 8.01 µg/mL) in [16], more than 6 µM in [4] and more than 3 µM in experiment [14].
